Source: patent US20110070232A1, “Combination Therapy with an Antitumor Alkaloid” (Pharma Mar, S.A., priority 2008, published 2011)
Like-named read-outs stand apart in the source and are kept apart here.

Key:
[1] = test system: BT-474 (breast cancer) cell line; assay: IC50 determination, MIT (tetrazolium) assay, 72 h (Example 18); format: cell-based; conditions: Homo sapiens, BT-474, 72 h
Experimental: BT-474 cells were grown in RPMI supplemented with 1% ITS (insulin, transferrin and selenium), 10% Fetal Bovine Serum (FBS), 1% penicillin/streptomycin and 2 mM L-glutamine.
Before plating, cell cultures were trypsinized and cell number estimated using an automated flow cytometer.
Cells were harvested and seeded in 96 well microtiter plates at the appropriate cell density (5,000-10,000 cells) in 150 μL of media and incubated for 24 hours to allow the cells to attach before drug addition.
After the incubation period (72 hours), 50 μL of MIT solution was added to each microtiter well and incubated for further 8 hours at 37° C. The culture medium was then removed and 50 μl, of DMSO were added to dissolve the MIT crystals. Optical densities were read at 540 nm on spectrophotometer microplate reader.
IC50 values were calculated from an average of two to four assays for each of the test agents.

Hs746T tumors = format: in vivo, mice; conditions: for % T/C on day 15 / % T/C on day 19 / % T/C on day 22 / % T/C on day 26 / % T/C on day 29 / % T/C on day 33: PM00104 0.9, 5-FU 50 (DPI 15) then 100 (DPI 22 & 29), irinotecan 20, doxorubicin 6 mg/kg/day
Text: Female athymic nude mice (Harlan Sprague Dawley, Madison, Wis.) were utilized for all experiments. Animals were housed in ventilated rack caging with food and water ad libitum. The mice were acclimated for at least 5 days prior to tumor implantation with a tumor cell suspension.
The tumor model used in these studies was Hs746T cell line, which was obtained from the ATCC (Manassas, Va.).
Treatments were initiated on DPI 15.
5-FU was provided as a solution which was further diluted with water for injection.
Tumor size measurements were recorded twice weekly from the treatment initiation until the termination of the study.
(§1) Mean, standard deviation and standard error of the mean were determined for tumor volume for all animal groups at all assessments. Student's t test was performed on tumor volumes at each measurement day, including at the end of the study, to determine whether there were any statistically significant differences between combination treatment groups and single monotherapy treatment groups.

[2] = test system: MIA PaCA-2 human pancreatic carcinoma cell line; assay: IC50 determination, MTS assay, 72 h (Example 3); format: cell-based; conditions: 72 hours of drug exposure
Experimental: (§2) Gemcitabine (Gemzar®) was the agent evaluated in combination with PM00104. The human pancreatic carcinoma cell lines selected for this assay were the following: BxPC-3, PANC-1, MIA PaCA-2, and SW1990 cell lines. BxPC-3 cell line was grown in RPMI 1640 medium supplemented with 10% FBS, 1.5 g/L sodium bicarbonate, 4.5 g/L glucose, 10 mM HEPES, 1 mM sodium pyruvate, and 2 mM L-glutamine. PANC-1 cell line was grown in DMEM supplemented with 10% FBS, 1.5 g/L sodium bicarbonate, 4.5 g/L glucose, and 4 mM L-glutamine. MIA PaCA-2 cell line was grown in DMEM supplemented with 10% FBS, 1.5 g/L sodium bicarbonate, 4.5 g/L glucose, 2.5% Horse Serum, and 2 mM L-glutamine. SW1990 cell line was grown in RPMI 1640 medium supplemented with 10% FBS and 2 mM L-glutamine.
(§3) a. […] It was used the same methodology as those disclosed in Example 1.
(§4) IC50 values were calculated from an average of three assays for each of the test agents.

[3] = test system: PANC-1 human pancreatic carcinoma cell line; assay: IC50 determination, MTS assay, 72 h (Example 3); format: cell-based; conditions: 72 hours of drug exposure
Experimental: as §2, §3, §4

[4] = test system: SW1990 human pancreatic carcinoma cell line; assay: IC50 determination, MTS assay, 72 h (Example 3); format: cell-based; conditions: 72 hours of drug exposure
Experimental: as §2, §3, §4

[5] = test system: BxPC-3 human pancreatic carcinoma cell line; assay: IC50 determination, MTS assay, 72 h (Example 3); format: cell-based; conditions: 72 hours of drug exposure
Experimental: as §2, §3, §4

CaLu-6 tumors = format: in vivo, mice
Experimental: Female athymic nude mice (Harlan Sprague Dawley, Madison, Wis.) were utilized for all experiments. Animals were housed in ventilated rack caging with food and water ad libitum. The mice were acclimated for at least 5 days prior to tumor implantation.
The tumor model used in this study was CaLu-6 cell line which is a human lung cancer cell line obtained from the ATCC (Manassas, Va.). CaLu-6 cells were grown in Eagle's Minimum Essential Medium (MEM), 10% FBS and 2 mM L-glutamine. Cells from in vitro passage 12 were implanted SC into study mice using a 1 ml syringe with a 13G trocar: 5×10^6 cells/mouse in 0.2 ml 50% Matrigel/50% MEM medium of CaLu-6 without serum or antibiotics. Bacterial culture was taken on cells used to implant the study.
When tumors reached an appropriated volume, within the size range of 99±17 mm^3 (mean±SD), mice were randomized into the treatment and control groups based on tumor weight by using LabCat® In Life module V 8.0 SP1 tumor tracking and measurement software. Treatments were initiated on DPI 9.
Tumor size measurements were recorded 2-3 times/week from the treatment initiation until the termination of the study.
as §1

[6] = day 15, mg/kg/day: PM00104 0.90 IV, 5-FU 50 at DPI 15 and 100 at DPI 22 & 29 IP
[7] = day 19, mg/kg/day: PM00104 0.90 IV, 5-FU 50 at DPI 15 and 100 at DPI 22 & 29 IP
[8] = day 22, mg/kg/day: PM00104 0.90 IV, 5-FU 50 at DPI 15 and 100 at DPI 22 & 29 IP
[9] = day 26, mg/kg/day: PM00104 0.90 IV, 5-FU 50 at DPI 15 and 100 at DPI 22 & 29 IP
[10] = day 29, mg/kg/day: PM00104 0.90 IV, 5-FU 50 at DPI 15 and 100 at DPI 22 & 29 IP
[11] = day 33, mg/kg/day: PM00104 0.90 IV, 5-FU 50 at DPI 15 and 100 at DPI 22 & 29 IP
[12] = PM00104 0.9 mg/kg/day IV and/or Gemcitabine 180 mg/kg/day IP
[13] = Gemcitabine 90 mg/kg/day IP, alone or with PM00104 0.9 mg/kg/day IV

| Compound | IC50 [1] | % T/C on day 15 (Hs746T tumors) | % T/C on day 19 (Hs746T tumors) | % T/C on day 22 (Hs746T tumors) | % T/C on day 26 (Hs746T tumors) | % T/C on day 29 (Hs746T tumors) | % T/C on day 33 (Hs746T tumors) | % Inhibition (Hs746T tumors; [6]) | % Inhibition (Hs746T tumors; [7]) | % Inhibition (Hs746T tumors; [8]) | % Inhibition (Hs746T tumors; [9]) | % Inhibition (Hs746T tumors; [10]) | % Inhibition (Hs746T tumors; [11]) | IC50 [2] | IC50 [3] | IC50 [4] | IC50 [5] | % T/C on day 9 (CaLu-6 tumors; [12]) | % T/C on day 12 (CaLu-6 tumors; [12]) | % T/C on day 15 (CaLu-6 tumors; [12]) | other results |
| --- | --- | --- | --- | --- | --- | --- | --- | --- | --- | --- | --- | --- | --- | --- | --- | --- | --- | --- | --- | --- | --- |
| COc1c(C)cc2c(c1O)[C@@H]1[C@@H]3Cc4c(OC(C)=O)c(C)c5c(c4[C@H](CNC(=O)/C=C/c4cccc(C(F)(F)F)c4)N3[C@@H](O)[C@H](C2)N1C)OCO5 [PM00104] | 1 nM | 106.6% | 55.8% | 60.9% | 54.2% | 58.6% | 80.8% | −6.6% | 44.2% | 39.1% | 45.8% | 41.4% | 19.2% | 0.093 µg/mL | 0.015 µg/mL | 0.0051 µg/mL | 0.036 µg/mL | 102.6% | 77.9% | 78.8% | % Inhibition (Hs746T tumors; day 15, PM00104 0.9 and doxorubicin 6 mg/kg/day): −6.6%; % Inhibition (Hs746T tumors; day 15, PM00104 0.9 and irinotecan 20 mg/kg/day): −6.6%; % Inhibition (Hs746T tumors; day 19, PM00104 0.9 and doxorubicin 6 mg/kg/day): 44.2%; % Inhibition (Hs746T tumors; day 19, PM00104 0.9 and irinotecan 20 mg/kg/day): 44.2%; % Inhibition (Hs746T tumors; day 22, PM00104 0.9 and doxorubicin 6 mg/kg/day): 39.1%; % Inhibition (Hs746T tumors; day 22, PM00104 0.9 and irinotecan 20 mg/kg/day): 39.1%; % Inhibition (Hs746T tumors; day 26, PM00104 0.9 and doxorubicin 6 mg/kg/day): 45.8%; % Inhibition (Hs746T tumors; day 26, PM00104 0.9 and irinotecan 20 mg/kg/day): 45.8%; % Inhibition (Hs746T tumors; day 29, PM00104 0.9 and doxorubicin 6 mg/kg/day): 41.4%; % Inhibition (Hs746T tumors; day 29, PM00104 0.9 and irinotecan 20 mg/kg/day): 41.4%; % Inhibition (Hs746T tumors; day 33, PM00104 0.9 and doxorubicin 6 mg/kg/day): 19.2%; % Inhibition (Hs746T tumors; day 33, PM00104 0.9 and irinotecan 20 mg/kg/day): 19.2%; % T/C on day 19 (CaLu-6 tumors; [12]): 90.6%; % T/C on day 22 (CaLu-6 tumors; [12]): 87.8%; % T/C on day 26 (CaLu-6 tumors; [12]): 87.6%; % T/C on day 29 (CaLu-6 tumors; [12]): 73.5%; % T/C on day 34 (CaLu-6 tumors; [12]): 75.8%; % T/C on day 40 (CaLu-6 tumors; [12]): 88.3% |
| CC(=O)O[C@H]1C(=O)[C@@]2(C)[C@H]([C@H](OC(=O)c3ccccc3)[C@]3(O)C[C@H](OC(=O)[C@H](O)[C@@H](NC(=O)c4ccccc4)c4ccccc4)C(C)=C1C3(C)C)[C@]1(OC(C)=O)CO[C@@H]1C[C@@H]2O [paclitaxel] | 1.7 nM |  |  |  |  |  |  |  |  |  |  |  |  |  |  |  |  |  |  |  |  |
| Nc1ccn([C@@H]2O[C@H](CO)[C@@H](O)C2(F)F)c(=O)n1 [Gemcitabine, gemcitabine] |  |  |  |  |  |  |  |  |  |  |  |  |  | 0.079 µg/mL | 110 µg/mL | 0.012 µg/mL | 0.84 µg/mL | 99.6% | 39.0% | 61.0% | % T/C on day 9 (CaLu-6 tumors; [13]): 100.6%; % T/C on day 12 (CaLu-6 tumors; [13]): 37.8%; % T/C on day 15 (CaLu-6 tumors; [13]): 78.8%; % T/C on day 19 (CaLu-6 tumors; [13]): 64.8%; % T/C on day 22 (CaLu-6 tumors; [13]): 72.0%; % T/C on day 26 (CaLu-6 tumors; [13]): 67.1%; % T/C on day 29 (CaLu-6 tumors; [13]): 61.3%; % T/C on day 34 (CaLu-6 tumors; [13]): 72.8%; % T/C on day 40 (CaLu-6 tumors; [13]): 76.1%; % T/C on day 19 (CaLu-6 tumors; [12]): 62.5%; % T/C on day 22 (CaLu-6 tumors; [12]): 48.7%; % T/C on day 26 (CaLu-6 tumors; [12]): 53.0%; % T/C on day 29 (CaLu-6 tumors; [12]): 46.8%; % T/C on day 34 (CaLu-6 tumors; [12]): 52.8%; % T/C on day 40 (CaLu-6 tumors; [12]): 60.4% |
| O=c1[nH]cc(F)c(=O)[nH]1 [5-FU, 5-fluorouracil] |  | 102.3% | 96.4% | 88.0% | 93.4% | 94.5% | 95.3% | −2.3% | 3.6% | 12.0% | 6.6% | 5.5% | 4.7% |  |  |  |  |  |  |  |  |
